Values quoted from earlier work as cited in patent publication US20120263775A1, “PRODUCTION OF PESTICIDE GRANULATES IN A SPOUTED BED APPARATUS” (priority 2009, published 2012).
Values after ≈ are worked out from the molar mass of the structure shown.

SMILES: COC(=O)N(OC)c1ccccc1COc1ccn(-c2ccc(Cl)cc2)n1 [Pyraclostrobin, pyraclostrobin]
- solubility in water: 2 µg/mL (≈ 5.16 µM)
